Patent publication US20250353839A1, “POLYMORPH OF BENZO[C]CHROMAN COMPOUND, PREPARATION METHOD THEREFOR AND USE THEREOF” (Reistone Biopharma Company Limited, priority 2022, published 2025)

Experiments:
[1] = Dynamic vapor sorption (DVS) hygroscopicity, with XRPD before and after; assay type: physicochemical; conditions: for weight gain by hygroscopicity: DVS; for crystal form before and after DVS detection (XRPD): XRPD redetermined after DVS
Procedure: (§1) Test conditions for the instruments used in experiments of the present disclosure: • 1. X-ray Powder Diffraction, XRPD • Instrument type: Malver Panalytical Aeris X-ray powder diffractometer • Ray: monochromatic Cu-Kα ray (λ=1.54188) • Scanning mode: θ/2θ, Scanning range (2θ range): 3.5-50° • Voltage: 40 kV, Electric current: 15 mA • 2. Differential Scanning calorimetry, DSC • Instrument type: TA DSC250 • Purge gas: Nitrogen; Nitrogen purge rate: 50 mL/min • Heating rate: 10° C./min • Temperature range: 25° C.-300° C. • 3. Thermogravimetric Analysis, TGA • Instrument type: TA TGA550 • Purge gas: Nitrogen; Nitrogen purge rate: 20 ml/min • Heating rate: 10° C./min • Temperature range: 30° C.-350° C. 4. Dynamic vapor sorption (DVS) • Using SMS Intrinsic PLUS, the detection is performed at 25° C., with humidity change of 50%-0%-90% with a step size of 10%, in which the criteria for judging is that the mass change dM/dT for each gradient is less than 0.002%, TMAX is 360 min, and two cycles are performed. • 5. High performance liquid chromatography (HPLC) described in the stability test of the crystal forms of the present disclosure is determined on Agilent 1260 Infinity II.

[2] = Stability (influence factor) test of free base crystal form E, HPLC and XRPD; assay type: physicochemical; conditions: for related substances (impurities) by HPLC versus initial: different days
Procedure: as §1
In the content detection method by the high performance liquid chromatography described in the present disclosure, HPLC conditions are as follows: chromatographic column, Agilent Eclipse Plus C18 4.6 mm*150 mm, 3.5 μm; mobile phase, A-10 mmol/L solution of sodium dihydrogen phosphate (pH 8.0), and B-ACN; flow rate, 1.0 ml/min; wavelength, 210 nm.
In the related substances detection method by the high performance liquid chromatography described in Example 8 of the present disclosure, HPLC conditions are as follows: chromatographic column, Agilent Eclipse Plus C18 4.6 mm*150 mm, 3.5 μm; mobile phase, A-10 mmol/L solution of ammonium acetate, and B-ACN; flow rate, 1.0 ml/min; wavelength, 210 nm.
It is determined whether temperature and humidity have an influence on the stability of free base crystal form E of the compound of formula I.
The free base crystal form E was placed in a stabilizing chamber […] and subjected to influence factor tests using a series of temperature and humidity combinations. After being placed for different days under light and various temperature and humidity conditions, the samples were taken out. The related substances (impurities) were detected by high performance liquid chromatography.
The samples taken out on the last day under light and various temperature and humidity conditions were subjected to XRPD detection, showing that the free base crystal form E had no change and had good stability.

[3] = accelerated experimental conditions (80% RH)
[4] = normal storage conditions (25° C., 60% RH)

SMILES	weight gain by hygroscopicity [1, 3]	crystal form before and after DVS detection (XRPD) [1]	weight gain by hygroscopicity ([1]; extreme conditions (90% RH))	weight gain by hygroscopicity [1, 4]	further results
N#Cc1ccc2c(c1)COc1cc(C[C@@H](C#N)NC(=O)[C@@H]3CNCCCO3)c(F)cc1-2 [crystal form A]	approximately 5.39%	did not change			
N#Cc1ccc2c(c1)COc1cc(C[C@@H](C#N)NC(=O)[C@@H]3CNCCCO3)c(F)cc1-2 [crystal form B]	approximately 1.60%	did not change	approximately 3.87%	approximately 0.93%	
N#Cc1ccc2c(c1)COc1cc(C[C@@H](C#N)NC(=O)[C@@H]3CNCCCO3)c(F)cc1-2 [crystal form C]	approximately 0.89%	did not change	approximately 1.16%	approximately 0.65%	
N#Cc1ccc2c(c1)COc1cc(C[C@@H](C#N)NC(=O)[C@@H]3CNCCCO3)c(F)cc1-2 [crystal form D]	approximately 0.76%	did not change	approximately 0.84%	approximately 0.64%	
N#Cc1ccc2c(c1)COc1cc(C[C@@H](C#N)NC(=O)[C@@H]3CNCCCO3)c(F)cc1-2 [free base crystal form E]					Content (%) of the compound of formula I ([2]; 0 day): 97.45%; Content (%) of the compound of formula I ([2]; 0.5 ICH (light)): 96.07%; Content (%) of the compound of formula I ([2]; 1 ICH (light)): 94.52%; Content (%) of the compound of formula I ([2]; 25° C. RH 92%-1 week): 97.29%; Content (%) of the compound of formula I ([2]; 25° C. RH 92%-2 weeks): 97.5%; Content (%) of the compound of formula I ([2]; 40° C. RH 75%-1 week): 97.36%; Content (%) of the compound of formula I ([2]; 40° C. RH 75%-2 weeks): 97.51%; Content (%) of the compound of formula I ([2]; 60° C.-1 week): 97.25%; Content (%) of the compound of formula I ([2]; 60° C.-2 weeks): 97.55%; related substances (impurities) by HPLC versus initial ([2]; light conditions): impurities increased; crystal form after stability test (XRPD) ([2]; samples of the last day under light and various temperature and humidity conditions): had no change; related substances (impurities) by HPLC versus initial ([2]; various temperature and humidity conditions): no significant increase or only a slight increase
